{
  "source": "patent US11066455B2",
  "about": "“Tmem100 peptides and variants thereof and their use in treating or preventing diseases or conditions” (The Johns Hopkins University, priority 2014, dated 2021)",
  "key": {"[1]": {"tested_on": "MO-induced pain in wild-type mice", "assay": "Mustard oil injection in hindpaw: acute nocifensive behavior and von Frey mechanical hyperalgesia", "type": "in vivo, mouse", "description": "Mice were placed in a transparent plastic box (4.5×5×10 cm) on a metal mesh and acclimatized for 30 minutes prior to testing. Each mouse was tested more than 5 times at a specific force manually, and the threshold was determined by the lowest force needed to elicit responses more than 50% of the time.\nMice were injected intradermally in the hind paw with 6 μL of 0.2% mustard oil (Sigma-Aldrich 377430) with Hamilton needles (80300). The mice were placed in a plexiglass cylinder, and the total time spent licking and flinching was recorded for the first 10 minutes after injection. Thirty and sixty minutes after injection, the mice were assayed with von Frey filaments for mechanical hyperalgesia.\nThe sequence from the last 28 amino acids of the C-terminus of the Tmem100-3Q mutant protein was synthesized and myristoylated at its N-terminus (myr-[…]-COOH) (SEQ ID NO: 8) by Twentyfirst Century Biochemicals. […] For the calcium imaging assay, the peptides were added to the calcium imaging buffer with a final concentration of 200 nM and incubated for at least […] at room temperature. For the mice behavioral assays, the peptides (5 μL, 2 mM) were injected subcutaneously in the hindpaw at least 30 minutes before testing. For the rat behavior assays, human T100-3Q (h-T100), a palmitoylated cell permeable peptide mutated based on the C terminus of human sequence in Tmem100, was applied. […]"}, "[2]": {"target": "T1, TRPA1 (Mus musculus, UniProt Q704Y3+Q8BLA8)", "T1 construct": "endogenous in cells; host or cells: primary mouse DRG neurons", "T1 sequence (Q8BLA8 whole entry)": "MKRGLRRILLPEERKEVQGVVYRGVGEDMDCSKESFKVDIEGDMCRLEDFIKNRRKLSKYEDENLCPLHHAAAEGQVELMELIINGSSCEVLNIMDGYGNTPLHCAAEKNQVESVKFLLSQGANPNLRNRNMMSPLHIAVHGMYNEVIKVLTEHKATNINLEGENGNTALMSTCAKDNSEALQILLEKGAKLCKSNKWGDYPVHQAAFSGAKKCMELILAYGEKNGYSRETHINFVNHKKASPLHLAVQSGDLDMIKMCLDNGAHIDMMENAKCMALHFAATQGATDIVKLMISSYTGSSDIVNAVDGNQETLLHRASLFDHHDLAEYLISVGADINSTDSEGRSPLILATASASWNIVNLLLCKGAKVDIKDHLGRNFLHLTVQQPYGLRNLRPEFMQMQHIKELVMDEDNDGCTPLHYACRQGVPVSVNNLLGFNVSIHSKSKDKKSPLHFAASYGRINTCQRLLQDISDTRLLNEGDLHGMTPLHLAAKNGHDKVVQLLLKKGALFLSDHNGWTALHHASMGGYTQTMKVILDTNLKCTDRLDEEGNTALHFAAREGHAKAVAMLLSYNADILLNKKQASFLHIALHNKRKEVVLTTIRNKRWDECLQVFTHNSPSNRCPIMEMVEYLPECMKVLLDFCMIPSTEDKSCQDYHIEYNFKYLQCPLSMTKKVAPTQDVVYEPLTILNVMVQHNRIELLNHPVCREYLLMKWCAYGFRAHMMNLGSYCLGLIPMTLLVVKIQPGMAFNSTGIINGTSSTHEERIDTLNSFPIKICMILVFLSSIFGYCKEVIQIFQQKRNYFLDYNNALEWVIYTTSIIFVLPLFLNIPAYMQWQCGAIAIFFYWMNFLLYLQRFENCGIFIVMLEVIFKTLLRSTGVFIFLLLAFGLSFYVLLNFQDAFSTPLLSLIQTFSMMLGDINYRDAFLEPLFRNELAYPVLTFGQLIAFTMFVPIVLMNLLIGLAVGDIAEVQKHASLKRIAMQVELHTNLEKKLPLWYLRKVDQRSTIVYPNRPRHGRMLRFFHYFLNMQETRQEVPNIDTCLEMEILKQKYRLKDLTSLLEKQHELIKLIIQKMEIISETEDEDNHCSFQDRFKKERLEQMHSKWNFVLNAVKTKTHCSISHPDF", "T1 sequence (Q704Y3 whole entry)": "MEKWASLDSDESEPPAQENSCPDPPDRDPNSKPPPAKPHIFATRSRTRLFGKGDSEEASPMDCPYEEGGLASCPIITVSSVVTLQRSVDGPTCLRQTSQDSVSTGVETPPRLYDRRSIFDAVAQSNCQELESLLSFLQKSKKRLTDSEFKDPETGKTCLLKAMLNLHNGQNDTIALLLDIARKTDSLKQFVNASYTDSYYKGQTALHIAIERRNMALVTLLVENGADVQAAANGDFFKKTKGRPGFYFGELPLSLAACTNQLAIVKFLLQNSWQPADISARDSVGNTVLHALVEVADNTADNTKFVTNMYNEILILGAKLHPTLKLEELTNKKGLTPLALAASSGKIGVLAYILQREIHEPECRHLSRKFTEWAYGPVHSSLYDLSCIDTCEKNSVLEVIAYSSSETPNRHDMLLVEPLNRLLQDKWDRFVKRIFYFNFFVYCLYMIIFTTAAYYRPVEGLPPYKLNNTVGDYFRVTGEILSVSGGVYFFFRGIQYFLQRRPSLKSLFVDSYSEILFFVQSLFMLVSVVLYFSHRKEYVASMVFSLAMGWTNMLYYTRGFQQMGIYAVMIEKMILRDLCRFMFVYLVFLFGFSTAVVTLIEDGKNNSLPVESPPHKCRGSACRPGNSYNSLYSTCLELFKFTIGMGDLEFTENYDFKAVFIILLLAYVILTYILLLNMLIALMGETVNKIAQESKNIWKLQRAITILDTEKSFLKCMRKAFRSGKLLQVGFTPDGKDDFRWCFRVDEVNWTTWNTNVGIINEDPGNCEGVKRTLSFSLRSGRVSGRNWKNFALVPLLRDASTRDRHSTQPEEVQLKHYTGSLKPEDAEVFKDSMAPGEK", "assay": "Calcium imaging of DRG neurons, response to mustard oil (MO)", "type": "cell-based", "conditions": "peptide 200 nM pretreatment; 10 μM MO; IB4-negative DRG neurons", "description": "Calcium imaging assays were performed as previously described (Liu et al., 2009). Cells were loaded with 2 μM fura 2-acetomethoxy ester (Molecular Probes) for 30 min in the dark at room temperature or for 45 minutes at 37° C. for DRG and cell lines, respectively. After washing, cells were imaged at 340 and 380 nm excitation to detect intracellular free calcium under a fluorescent microscope (Nikon Eclipse TE2000-S) and Lambda 10B shutter (Sutter Instrument). The cells were bathed in calcium imaging buffer (pH 7.45, 130 mM NaCl, 3 mM KCl, 2.5 mM CaCl2, 10 mM HEPES, 10 mM glucose, 1.2 mM NaHCO3, with sucrose to increase osmolarity to 290 mOsm). […] Images were processed and analyzed with NIS-Elements BR 2.30 software (Nikon). […] The data was analyzed with the experimenter blinded to the genotypes or constructs transfected.\nDRG from 3 to 4-week old mice were collected in cold DH10 medium (90% DMEM/F-12, 10% FBS, 100 U/ml penicillin, and 100 μg/ml Streptomycin, Gibco) and treated with enzyme solution in HBSS containing collagenase (1.65 mg/mL, Worthington CLS I) and dispase (3.55 mg/mL, GIBCO 17105-041) at 37° C. for 30 minutes. […] This efficiency was determined by mCherry(+) divided by total number of cells in the bright fields. […]"}, "[3]": {"tested_on": "neuropathic mechanical hypersensitivity in SNL rats", "type": "in vivo, rat", "conditions": "intrathecal 10 μl; h-T100 10-100 μM, HC-030031 10-200 μM, scrambled 100 μM", "from_the_text": "An modified L5 SNL model was produced as described in previously (He et al., 2014; Shechter et al., 2013). Male Sprague-Dawley rats (200-350 g, Harlan, Indianapolis, Ind.) were anesthetized with 2% isoflurane. The left L5 spinal nerve was ligated with a 6-0 silk suture and cut distally. The muscle layer was closed with 4-0 chromic gut suture and the skin closed with metal clips. For intrathecal catheter implantation, a small slit was cut in the atlanto-occipital membrane of rats, into which a saline-filled piece of PE-10 tubing (6-7 cm) was inserted (He et al., 2014). […] Hypersensitivity to punctuate mechanical stimulation was determined with the up-down method by using a series of von Frey filaments (0.38-15.1 g) applied for 4-6 seconds to the test area on the plantar surface of the hindpaw (Chaplan et al., 1994; He et al., 2014). The PWT was determined according to the formula provided by Dixon (Dixon, 1980). […] HC-030031 was purchased from Tocris Bioscience (Bristol, UK). Both drugs were dissolved in 10% dimethylsulfoxide (DMSO), 5% Tween 80 and 85% sterile saline solution. The final working solution which was injected by intrathecal route contained <1% DMSO. The number of animals used in each study was based on experience with similar studies and power analysis calculations. Animals were randomized to the different treatment groups and blinded the experimenter to drug treatment to reduce selection and observation bias. After the experiments were completed, no data point was excluded. STATISTICA 6.0 software (StatSoft, Inc., Tulsa, Okla.) was used to conduct all statistical analyses. The Tukey honestly significant difference (HSD) post-hoc test was used to compare specific data points. Bonferroni correction was applied for multiple comparisons. Two-tailed tests were performed, and data are expressed as mean±SEM; P<0.05 was considered significant in all tests.\n(§1) The sequence from the last 28 amino acids of the C-terminus of the Tmem100-3Q mutant protein was synthesized and myristoylated at its N-terminus (myr-[…]-COOH) (SEQ ID NO: 8) by Twentyfirst Century Biochemicals. […] For the calcium imaging assay, the peptides were added to the calcium imaging buffer with a final concentration of 200 nM and incubated for at least […] at room temperature. For the mice behavioral assays, the peptides (5 μL, 2 mM) were injected subcutaneously in the hindpaw at least 30 minutes before testing. For the rat behavior assays, human T100-3Q (h-T100), a palmitoylated cell permeable peptide mutated based on the C terminus of human sequence in Tmem100, was applied. The sequence is Palmitoyl-[…]-COOH (SEQ ID NO: 7)."}, "[4]": {"tested_on": "TRPA1", "assay": "Calcium imaging of HEK293T cells expressing TRPA1 and TRPV1 (MO or CA)", "type": "cell-based", "conditions": "HEK293T TRPA1+TRPV1 with Tmem100", "description": "Calcium imaging assays were performed as previously described (Liu et al., 2009). Cells were loaded with 2 μM fura 2-acetomethoxy ester (Molecular Probes) for 30 min in the dark at room temperature or for 45 minutes at 37° C. for DRG and cell lines, respectively. After washing, cells were imaged at 340 and 380 nm excitation to detect intracellular free calcium under a fluorescent microscope (Nikon Eclipse TE2000-S) and Lambda 10B shutter (Sutter Instrument). The cells were bathed in calcium imaging buffer (pH 7.45, 130 mM NaCl, 3 mM KCl, 2.5 mM CaCl2, 10 mM HEPES, 10 mM glucose, 1.2 mM NaHCO3, with sucrose to increase osmolarity to 290 mOsm). The reagents and buffers were applied through a gravity perfusion system at a rate of […], including mustard oil (Sigma 377430), cinnamaldehyde (Sigma C80687), menthol (Sigma M2780), and capsaicin (Sigma M2028). Cells with high baseline 340/380 values (>1.5) were excluded for analysis. For DRG neurons, IB4 staining was performed in the chamber with the dilution of 1:200 (Molecular Probes 121412) for 160 seconds before washing off at the end of each test. Images were processed and analyzed with NIS-Elements BR 2.30 software (Nikon). A responsive cell was defined as one that with greater than a 20% increase in the 340/380 ratio above the baseline. Intracellular calibration for calcium was performed as previously described (Akopian et al., 2007). The data was analyzed with the experimenter blinded to the genotypes or constructs transfected.\nDRG from 3 to 4-week old mice were collected in cold DH10 medium (90% DMEM/F-12, 10% FBS, 100 U/ml penicillin, and 100 μg/ml Streptomycin, Gibco) and treated with enzyme solution in HBSS containing collagenase (1.65 mg/mL, Worthington CLS I) and dispase (3.55 mg/mL, GIBCO 17105-041) at 37° C. for 30 minutes. After trituration and centrifugation, cells were resuspended in DH10, plated on glass coverslips coated with poly-D-lysine (0.5 mg/ml, Stoughton, Mass.) and laminin (10 μg/ml, Invitrogen), and cultured overnight in an incubator at 37° C. The neurons were tested within 24 hours. HEK293T, COS-7, and CHO cells were cultured in a medium consisting of 90% DMEM, 10% FBS, 100 U/mL penicillin, and 100 μg/ml Streptomycin. GlutaMAX (Gibco 35050-061) was also added for CHO cells. For calcium imaging, the cells were plated on glass coverslips coated with poly-D-lysine (0.5 mg/ml, Stoughton, Mass.). In the HEK cell studies the denominator is the cells expressing both TRPA1, TRPV1, and the designated constructs (i.e. Tmem100 or Tmem100-3Q mutant). mCherry:TRPV1:Tmem100 was transfected in 1:8:8 ratio into TRPA1 stable cell line (obtained from N. Tigue from GlaxoSmithKline) and used mCherry as the marker for the cells expressing the constructs 18 hours after transfection with Lipofectamine 2000. The transfection efficiency for Tmem100+TRPV1+TRPA1 triple-positive cells is 27±3%. This efficiency was determined by mCherry(+) divided by total number of cells in the bright fields.\nas §1"}},
  "note": "* marks the point of attachment. Myristoyl = CCCCCCCCCCCCCC(=O)*",
  "data": [
    {"molecule": "myr-QRVLEQVLQNWSRRANVKQAQKFQVKCT-COOH (Myristoyl-QRVLEQVLQNWSRRANVKQAQKFQVKCT-OH; SMILES CCCCCCCCCCCCCC(=O)N[C@@H](CCC(N)=O)C(=O)N[C@@H](CCCNC(=N)N)C(=O)N[C@H](C(=O)N[C@@H](CC(C)C)C(=O)N[C@@H](CCC(=O)O)C(=O)N[C@@H](CCC(N)=O)C(=O)N[C@H](C(=O)N[C@@H](CC(C)C)C(=O)N[C@@H](CCC(N)=O)C(=O)N[C@@H](CC(N)=O)C(=O)N[C@@H](Cc1c[nH]c2ccccc12)C(=O)N[C@@H](CO)C(=O)N[C@@H](CCCNC(=N)N)C(=O)N[C@@H](CCCNC(=N)N)C(=O)N[C@@H](C)C(=O)N[C@@H](CC(N)=O)C(=O)N[C@H](C(=O)N[C@@H](CCCCN)C(=O)N[C@@H](CCC(N)=O)C(=O)N[C@@H](C)C(=O)N[C@@H](CCC(N)=O)C(=O)N[C@@H](CCCCN)C(=O)N[C@@H](Cc1ccccc1)C(=O)N[C@@H](CCC(N)=O)C(=O)N[C@H](C(=O)N[C@@H](CCCCN)C(=O)N[C@@H](CS)C(=O)N[C@H](C(=O)O)[C@@H](C)O)C(C)C)C(C)C)C(C)C)C(C)C) [scrambled]", "values": [
      {"measurement": "MO-induced mechanical hyperalgesia (mechanical threshold)", "setting": "[1]; peptide 5 μl of 2 mM pre-treatment", "value": "0.1 ± 0.03", "unit": "g"},
      {"measurement": "MO-induced acute nocifensive behavior (time)", "setting": "[1]; peptide 5 μl of 2 mM pre-treatment in hindpaw", "value": "80 ± 9", "unit": "s"},
      {"measurement": "percentage of DRG neurons responding to MO", "setting": "[2]", "value": "12±1.3", "unit": "%"},
      {"measurement": "ipsilateral paw withdrawal threshold (PWT) vs pre-drug", "setting": "[3]", "value": "no effect"}
    ]},
    {"molecule": "Tmem100: 134-amino acid two-transmembrane protein, regulator of TRPA1 (SEQ ID NO: 1/2), expressed in cells (protein, listed as Homo sapiens, listed as Mus musculus) chain 1: MTEEPIKEILGAPKAHMAATMEKSPKSEVVITTVPLVSEIQLMAATGGTELSCYRCIIPFAVVVFIAGIVVTAVAYSFNSHGSIISIFGLVVLSSGLFLLASSALCWKVRQRSKKAKRRESQTALVANQRSLFA chain 2: MTEESTKENLGAPKSPTPVTMEKNPKREVVVTTGPLVSEVQLMAATGGAELSCYRCIIPFAVVVFITGIVVTAVAYSFNSHGSIISIFGLVLLSSGLFLLASSALCWKVRQRNKKVKRRESQTALVVNQRCLFA", "values": [
      {"measurement": "percentage of cells responsive to MO", "setting": "[4]; 100 nM MO", "value": 20, "unit": "%"},
      {"measurement": "percentage of cells responsive to CA", "setting": "[4]; 5 μM CA", "value": 30, "unit": "%"}
    ]}
  ]
}
